Measurements taken from ChEMBL document CHEMBL3879901, “Substituted isoquinolin-1(2H)-ones, and methods of use thereof” (2012).

Experiments:
[1] = Antiproliferative activity against Balb/c mouse splenic B cells preincubated for 30 mins followed by LPS or F(ab')2 donkey anti-mouse IgM and recombinant mouse IL4 stimulation measured after 72 hrs by Alamar Blue reduction assay; type: functional, cell-based
[2] = molecular target: PI3K p110 beta/p85 alpha (Homo sapiens, UniProt P42338); test: Inhibition of N-terminal His6-tagged recombinant full-length human p110beta/untagged recombinant full length p85alpha expressed in baculovirus infected Sf21 cells using phosphatidylinositol as substrate in presence of gamma-32P-ATP after 5 mins by thin layer chromatographic method
[3] = molecular target: PI3-kinase p110-delta/p85-alpha (Homo sapiens, UniProt O00329); test: Inhibition of N-terminal His6-tagged recombinant full-length human p110delta/untagged recombinant full length p85alpha expressed in baculovirus infected Sf21 cells using phosphatidylinositol as substrate in presence of gamma-32P-ATP after 5 mins by thin layer chromatographic method
[4] = molecular target: PI3-kinase p110-alpha/p85-alpha (Homo sapiens, UniProt P42336); test: Inhibition of N-terminal His6-tagged recombinant full-length human p110alpha/untagged recombinant full length human p85alpha expressed in baculovirus infected Sf21 cells using phosphatidylinositol as substrate in presence of gamma-32P-ATP after 5 mins by thin layer chromatographic method
PI3-kinase p110-alpha/p85-alpha, sequence (P27986 whole entry): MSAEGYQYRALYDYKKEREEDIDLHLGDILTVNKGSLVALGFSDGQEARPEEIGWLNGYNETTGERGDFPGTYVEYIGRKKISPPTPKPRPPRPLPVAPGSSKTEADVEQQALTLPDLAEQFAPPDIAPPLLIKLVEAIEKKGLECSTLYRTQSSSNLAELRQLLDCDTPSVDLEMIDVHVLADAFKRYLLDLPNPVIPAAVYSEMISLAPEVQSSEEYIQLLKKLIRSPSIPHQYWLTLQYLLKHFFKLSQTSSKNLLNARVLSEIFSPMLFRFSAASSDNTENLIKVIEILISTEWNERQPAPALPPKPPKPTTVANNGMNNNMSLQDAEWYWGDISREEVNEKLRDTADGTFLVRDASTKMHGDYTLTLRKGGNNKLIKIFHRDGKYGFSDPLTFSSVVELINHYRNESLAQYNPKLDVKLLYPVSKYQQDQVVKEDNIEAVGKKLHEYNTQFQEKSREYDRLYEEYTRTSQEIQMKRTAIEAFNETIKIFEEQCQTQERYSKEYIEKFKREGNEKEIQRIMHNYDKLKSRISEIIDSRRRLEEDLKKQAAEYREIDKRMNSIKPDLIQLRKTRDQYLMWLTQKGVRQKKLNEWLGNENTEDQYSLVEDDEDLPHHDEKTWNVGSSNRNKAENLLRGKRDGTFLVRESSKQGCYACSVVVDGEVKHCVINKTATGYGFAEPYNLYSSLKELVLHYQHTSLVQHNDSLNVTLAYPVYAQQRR
PI3-kinase p110-alpha/p85-alpha, sequence (P42336 whole entry): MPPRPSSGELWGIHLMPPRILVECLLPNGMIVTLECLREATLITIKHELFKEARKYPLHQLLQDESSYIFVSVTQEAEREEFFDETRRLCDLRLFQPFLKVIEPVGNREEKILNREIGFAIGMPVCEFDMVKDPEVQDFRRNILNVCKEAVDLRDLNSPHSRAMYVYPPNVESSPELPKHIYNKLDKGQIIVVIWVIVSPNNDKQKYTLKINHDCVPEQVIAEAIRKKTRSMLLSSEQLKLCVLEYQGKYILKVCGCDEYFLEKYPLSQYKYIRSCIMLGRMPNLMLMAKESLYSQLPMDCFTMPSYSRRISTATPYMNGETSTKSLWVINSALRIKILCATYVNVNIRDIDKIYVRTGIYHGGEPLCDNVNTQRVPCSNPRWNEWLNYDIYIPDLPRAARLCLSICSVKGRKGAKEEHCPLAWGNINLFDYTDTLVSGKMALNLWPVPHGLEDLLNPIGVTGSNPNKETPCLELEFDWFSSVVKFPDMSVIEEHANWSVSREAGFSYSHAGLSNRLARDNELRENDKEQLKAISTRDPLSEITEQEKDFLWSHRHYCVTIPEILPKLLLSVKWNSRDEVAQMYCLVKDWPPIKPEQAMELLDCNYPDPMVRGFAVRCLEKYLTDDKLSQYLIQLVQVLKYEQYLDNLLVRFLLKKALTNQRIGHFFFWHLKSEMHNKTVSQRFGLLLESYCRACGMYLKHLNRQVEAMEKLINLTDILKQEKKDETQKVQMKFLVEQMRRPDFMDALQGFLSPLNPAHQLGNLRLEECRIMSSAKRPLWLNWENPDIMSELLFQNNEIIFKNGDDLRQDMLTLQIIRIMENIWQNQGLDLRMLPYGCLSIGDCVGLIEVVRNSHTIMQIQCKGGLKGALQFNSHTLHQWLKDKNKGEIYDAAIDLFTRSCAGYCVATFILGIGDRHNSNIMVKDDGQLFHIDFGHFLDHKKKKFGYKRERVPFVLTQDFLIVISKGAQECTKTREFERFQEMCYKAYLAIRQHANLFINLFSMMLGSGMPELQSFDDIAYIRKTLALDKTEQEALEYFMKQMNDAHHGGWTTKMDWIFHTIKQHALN

PI3K p110 beta/p85 alpha, sequence (P27986 whole entry): as the sequence (P27986 whole entry) above
PI3K p110 beta/p85 alpha, sequence (P42338 whole entry): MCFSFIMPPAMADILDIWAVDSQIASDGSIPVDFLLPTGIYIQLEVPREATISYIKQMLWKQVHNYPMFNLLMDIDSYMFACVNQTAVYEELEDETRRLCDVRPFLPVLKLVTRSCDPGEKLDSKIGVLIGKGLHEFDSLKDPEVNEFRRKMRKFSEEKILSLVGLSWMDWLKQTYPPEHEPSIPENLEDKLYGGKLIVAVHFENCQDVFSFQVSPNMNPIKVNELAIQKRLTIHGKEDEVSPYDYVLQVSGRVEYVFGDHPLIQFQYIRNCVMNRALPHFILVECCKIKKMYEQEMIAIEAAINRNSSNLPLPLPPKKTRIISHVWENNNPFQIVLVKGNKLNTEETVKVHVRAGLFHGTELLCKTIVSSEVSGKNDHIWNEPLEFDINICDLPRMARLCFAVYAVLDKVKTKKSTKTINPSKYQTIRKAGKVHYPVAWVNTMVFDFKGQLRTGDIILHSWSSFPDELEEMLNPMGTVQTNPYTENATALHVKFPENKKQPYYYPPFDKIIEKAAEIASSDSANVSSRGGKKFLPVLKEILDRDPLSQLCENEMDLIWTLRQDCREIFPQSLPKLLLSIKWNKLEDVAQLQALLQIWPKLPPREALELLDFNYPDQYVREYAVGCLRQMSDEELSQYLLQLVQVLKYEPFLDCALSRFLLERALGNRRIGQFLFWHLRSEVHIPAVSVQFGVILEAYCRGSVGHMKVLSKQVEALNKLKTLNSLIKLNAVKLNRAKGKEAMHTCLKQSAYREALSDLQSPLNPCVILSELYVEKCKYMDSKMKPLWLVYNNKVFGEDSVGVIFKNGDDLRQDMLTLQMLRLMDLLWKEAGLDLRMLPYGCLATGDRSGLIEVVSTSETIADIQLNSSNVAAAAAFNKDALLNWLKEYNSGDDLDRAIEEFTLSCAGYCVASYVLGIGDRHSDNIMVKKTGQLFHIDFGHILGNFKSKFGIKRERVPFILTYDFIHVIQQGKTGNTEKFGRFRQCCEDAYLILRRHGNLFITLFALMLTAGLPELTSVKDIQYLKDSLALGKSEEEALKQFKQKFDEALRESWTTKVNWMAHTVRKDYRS
PI3-kinase p110-delta/p85-alpha, sequence (P27986 whole entry): as the sequence (P27986 whole entry) above
PI3-kinase p110-delta/p85-alpha, sequence (O00329 whole entry): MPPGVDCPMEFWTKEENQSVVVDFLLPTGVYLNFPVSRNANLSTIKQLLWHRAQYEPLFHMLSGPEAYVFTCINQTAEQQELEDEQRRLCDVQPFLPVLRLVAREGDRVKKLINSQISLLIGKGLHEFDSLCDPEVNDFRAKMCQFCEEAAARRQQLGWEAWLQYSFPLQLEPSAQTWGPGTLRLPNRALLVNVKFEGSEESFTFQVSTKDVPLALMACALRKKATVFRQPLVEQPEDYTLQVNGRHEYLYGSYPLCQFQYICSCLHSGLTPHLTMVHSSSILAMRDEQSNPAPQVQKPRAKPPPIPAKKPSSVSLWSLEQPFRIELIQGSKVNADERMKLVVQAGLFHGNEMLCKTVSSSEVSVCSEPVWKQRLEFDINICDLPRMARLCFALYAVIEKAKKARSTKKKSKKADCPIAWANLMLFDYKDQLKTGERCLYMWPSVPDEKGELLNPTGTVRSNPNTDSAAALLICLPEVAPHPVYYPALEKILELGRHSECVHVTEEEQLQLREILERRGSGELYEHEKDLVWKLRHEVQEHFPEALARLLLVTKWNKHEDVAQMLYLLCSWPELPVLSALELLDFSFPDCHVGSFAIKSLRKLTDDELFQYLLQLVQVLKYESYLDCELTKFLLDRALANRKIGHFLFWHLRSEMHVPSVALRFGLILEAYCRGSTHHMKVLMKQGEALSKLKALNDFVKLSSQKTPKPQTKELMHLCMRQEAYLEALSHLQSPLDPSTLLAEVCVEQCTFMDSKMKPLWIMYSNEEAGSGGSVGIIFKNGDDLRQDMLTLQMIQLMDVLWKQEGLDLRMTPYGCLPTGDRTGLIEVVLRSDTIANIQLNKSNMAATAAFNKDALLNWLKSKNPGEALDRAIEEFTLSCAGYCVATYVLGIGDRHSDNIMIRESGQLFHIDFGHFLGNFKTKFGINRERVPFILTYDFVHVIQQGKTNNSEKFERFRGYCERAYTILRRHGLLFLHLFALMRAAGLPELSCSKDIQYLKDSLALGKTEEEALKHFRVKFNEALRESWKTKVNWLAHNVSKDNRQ

| SMILES | EC50 [1] | IC50 [2] | IC50 [3] | IC50 [4] |
| --- | --- | --- | --- | --- |
| Cc1cccc2cc(Cn3nc(-c4cccc(Cl)c4)c4c(N)ncnc43)n(-c3ccccc3F)c(=O)c12 | > 10000 nM | > 10000 nM | < 10000 nM |  |
| Cc1ccccc1-n1c(Cn2nc(-c3cnc4[nH]ccc4c3)c3c(N)ncnc32)cc2cccc(C)c2c1=O | < 100 nM |  | < 100 nM | > 10000 nM |
| Cc1ccccc1-n1c(Cn2nc(-c3ccn[nH]3)c3c(N)ncnc32)cc2cccc(C)c2c1=O |  | > 10000 nM | < 1000 nM | > 10000 nM |
| Cc1cccc2cc([C@H](C)Nc3nc(F)nc4[nH]cnc34)n(C3CC3)c(=O)c12 |  | < 100 nM | < 100 nM |  |
| Cc1cccc2cc(Cn3nc(C#C[C@@H](C)O)c4c(N)ncnc43)n(-c3ccccc3C(C)C)c(=O)c12 | < 100 nM | < 10000 nM | < 100 nM | > 10000 nM |
| Cc1cccc2cc(Cn3nc(I)c4c(N)ncnc43)n(-c3ccccc3C(C)C)c(=O)c12 | < 100 nM | < 10000 nM | < 100 nM |  |
| Cc1ccccc1-n1c(Cn2nc(-c3ccc(O)cc3)c3c(N)ncnc32)cc2cccc(C)c2c1=O | < 1000 nM | > 10000 nM | < 1000 nM | > 10000 nM |
| Cc1cccc2cc(Cn3nc(-c4cccc(O)c4)c4c(N)ncnc43)n(C3CCC3)c(=O)c12 | < 1000 nM | < 10000 nM | < 100 nM | > 10000 nM |
| CC(=O)Nc1nc2ccc(-c3nn(Cc4cc5cccc(Cl)c5c(=O)n4C4CC4)c4ncnc(N)c34)cc2s1 | < 100 nM | < 100 nM | < 100 nM | < 100000 nM |
| CCc1ccccc1-n1c(Cn2nc(-c3cn[nH]c3)c3c(N)ncnc32)cc2cccc(C)c2c1=O | < 100 nM | < 10000 nM | < 100 nM | < 10000 nM |
| Cc1cccc2cc(Cn3nc(-c4cccc(O)c4)c4c(N)ncnc43)n(-c3ccccc3C(C)C)c(=O)c12 | < 100 nM |  | < 100 nM | > 10000 nM |
| COc1ccccc1-n1c(Cn2nc(-c3cc(O)cc(F)c3)c3c(N)ncnc32)cc2cccc(C)c2c1=O | < 100 nM | < 10000 nM | < 100 nM | < 10000 nM |
| Cc1cccnc1-n1c(Cn2nc(-c3cc(O)cc(F)c3)c3c(N)ncnc32)cc2cccc(C)c2c1=O | < 100 nM |  | < 100 nM | > 10000 nM |
| Cc1cccnc1-n1c(Cn2nc(-c3ccc(Cl)c(O)c3)c3c(N)ncnc32)cc2cccc(C)c2c1=O | < 100 nM | < 10000 nM | < 100 nM | > 10000 nM |
| CCc1ccccc1-n1c(Cn2nc(-c3cccc(O)c3)c3c(N)ncnc32)cc2cccc(C)c2c1=O | < 100 nM | > 10000 nM | < 100 nM | > 10000 nM |
| Cc1cccc2cc(Cn3nc(-c4cn[nH]c4)c4c(N)ncnc43)n(-c3ccccc3C(C)C)c(=O)c12 | < 100 nM | < 1000 nM | < 100 nM | < 10000 nM |
| COc1ccc(-c2nn(Cc3cc4cccc(C)c4c(=O)n3-c3ccccc3C)c3ncnc(N)c23)cc1 | < 1000 nM |  | < 1000 nM | > 10000 nM |
| Cc1cccc2cc(Cn3nc(C#C[C@@H](C)O)c4c(N)ncnc43)n(C3CCCCC3)c(=O)c12 | < 10000 nM | > 10000 nM | < 100 nM | > 10000 nM |
| Cc1cccc2cc(Cn3nc(-c4cc(O)cc(F)c4)c4c(N)ncnc43)n(C3CCC3)c(=O)c12 | < 100 nM | < 10000 nM | < 100 nM | < 10000 nM |
| Cc1cccc2cc(Cn3nc(I)c4c(N)ncnc43)n(C3CC3)c(=O)c12 | < 1000 nM | < 10000 nM | < 100 nM | < 10000 nM |
| Cc1ccccc1-n1c(Cn2nc(-c3ccc4cc[nH]c4c3)c3c(N)ncnc32)cc2cccc(C)c2c1=O | < 1000 nM |  | < 100 nM | > 10000 nM |
| Cc1cccc2cc(Cn3nc(-c4cccc(O)c4)c4c(N)ncnc43)n(C3CC3)c(=O)c12 | < 100 nM | < 1000 nM | < 100 nM | < 1000 nM |
| CC(=O)Nc1nc2ccc(-c3nn(Cc4cc5cccc(F)c5c(=O)n4C(C)C)c4ncnc(N)c34)cc2s1 | < 100 nM | < 10000 nM | < 100 nM | < 100000 nM |
| Cc1ccccc1-n1c(Cn2nc(-c3ccc4nc(N)ncc4c3)c3c(N)ncnc32)cc2cccc(C)c2c1=O | < 100 nM | < 1000 nM | < 100 nM | < 100000 nM |
| Cc1cccc2cc(C(C)Nc3nc(N)nc4[nH]cnc34)n(-c3ccccc3)c(=O)c12 (configuration not stated) |  | < 100 nM |  |  |
| Cc1cccc2cc(Cn3nc(-c4cccc(O)c4)c4c(N)ncnc43)n(C(C)C)c(=O)c12 | < 100 nM | < 1000 nM | < 100 nM | > 10000 nM |
| Cc1ccccc1-n1c(Cn2nc(-c3ccc(F)c(O)c3)c3c(N)ncnc32)cc2cccc(F)c2c1=O |  | > 10000 nM | < 100 nM | > 10000 nM |
| CC(=O)Nc1nc2ccc(-c3nn(Cc4cc5cccc(C)c5c(=O)n4C)c4ncnc(N)c34)cc2s1 | < 100 nM | < 1000 nM | < 100 nM | < 100000 nM |

| SMILES | EC50 [1] | IC50 [2] | IC50 [3] | IC50 [4] |
| --- | --- | --- | --- | --- |
| Cc1ccccc1-n1c(C(C)Nc2ncnc3[nH]cnc23)cc2cccc(C)c2c1=O (configuration not stated) | < 100 nM | < 10000 nM | < 100 nM | > 10000 nM |
| Cc1cccc2cc(Cn3nc(-c4cc(O)cc(F)c4)c4c(N)ncnc43)n(-c3ccccc3Cl)c(=O)c12 | < 100 nM | < 1000 nM | < 100 nM | < 10000 nM |
| Cc1ccccc1-n1c(Cn2nc(-c3ccc(F)c(O)c3)c3c(N)ncnc32)cc2cccc(C)c2c1=O | < 100 nM | < 10000 nM | < 100 nM | > 10000 nM |
| Cc1ccccc1-n1c(Cn2nc(-c3ccc(Cl)c(O)c3)c3c(N)ncnc32)cc2cccc(C)c2c1=O | < 100 nM | < 10000 nM | < 100 nM | > 10000 nM |
| CCc1ccccc1-n1c(Cn2nc(I)c3c(N)ncnc32)cc2cccc(C)c2c1=O | < 1000 nM | < 10000 nM | < 100 nM |  |
| Cc1ccccc1-n1c(Cn2nc(-c3ccc(O)c(Cl)c3)c3c(N)ncnc32)cc2cccc(C)c2c1=O | < 1000 nM | < 10000 nM | < 100 nM | > 10000 nM |
| Cc1cccc2cc(Cn3nc(-c4ccc(Cl)c(O)c4)c4c(N)ncnc43)n(-c3ccccc3F)c(=O)c12 | < 1000 nM | > 10000 nM | < 100 nM | > 10000 nM |
| CC(=O)Nc1nc2ccc(-c3nn(Cc4cc5cccc(C)c5c(=O)n4C4CCC4)c4ncnc(N)c34)cc2s1 | < 100 nM | < 1000 nM | < 100 nM | < 100000 nM |
| CC(=O)Nc1nc2ccc(-c3nn(Cc4cc5cccc(C)c5c(=O)n4C(C)C)c4ncnc(N)c34)cc2s1 | < 100 nM | < 10000 nM | < 100 nM | < 100000 nM |
| Cc1cccc2cc(Cn3nc(I)c4c(N)ncnc43)n(C3CCCCC3)c(=O)c12 | < 10000 nM | > 10000 nM | < 1000 nM | > 10000 nM |
| Cc1ccccc1-n1c(Cn2nc(-c3ccc(F)c(O)c3)c3c(N)ncnc32)cc2ccccc2c1=O | < 100 nM | > 10000 nM | < 100 nM | > 10000 nM |
| Cc1ccccc1-n1c(Cn2nc(C#C[C@@H](C)O)c3c(N)ncnc32)cc2ccccc2c1=O | < 1000 nM |  | < 1000 nM | > 10000 nM |
| Cc1ccccc1-n1c(Cn2nc(-c3cccc(O)c3)c3c(N)ncnc32)cc2cccc(F)c2c1=O |  | > 10000 nM | < 100 nM | > 10000 nM |
| Cc1cccc2cc([C@H](C)Nc3ncnc4[nH]cnc34)n(-c3ccc(F)cc3)c(=O)c12 |  | < 100 nM |  |  |
| Cc1ccccc1-n1c(Cn2nc(-c3ccc(O)c(F)c3)c3c(N)ncnc32)cc2cccc(C)c2c1=O | < 1000 nM |  | < 100 nM | > 10000 nM |
| CC(=O)Nc1nc2ccc(-c3nn(Cc4cc5cccc(C)c5c(=O)n4-c4cccc(F)c4)c4ncnc(N)c34)cc2s1 | < 100 nM | < 10000 nM | < 100 nM |  |
| CNC(=O)Nc1nc2ccc(-c3nn(Cc4cc5cccc(C)c5c(=O)n4-c4ccccc4C)c4ncnc(N)c34)cc2s1 | < 100 nM |  | < 100 nM | < 100000 nM |
| Cc1cccc2cc([C@H](C)Nc3nc(Cl)nc4[nH]cnc34)n(C3CC3)c(=O)c12 |  | < 100 nM | < 100 nM |  |
| Cc1cccnc1-n1c(Cn2nc(I)c3c(N)ncnc32)cc2cccc(C)c2c1=O | < 1000 nM |  |  | > 10000 nM |
| Cc1ccccc1-n1c(Cn2nc(I)c3c(N)ncnc32)cc2ccccc2c1=O | < 1000 nM |  | < 1000 nM | > 10000 nM |
| Cc1cccc2cc(C(C)Nc3ncnc4[nH]cnc34)n(-c3c(F)cccc3F)c(=O)c12 (configuration not stated) | < 100 nM |  | < 100 nM |  |
| Cc1ccccc1-n1c(Cn2nc(Br)c3c(N)ncnc32)cc2cccc(C)c2c1=O | < 1000 nM |  | < 100 nM | > 10000 nM |
| Cc1ccccc1-n1c(Cn2nc(-c3ccc(Cl)c(O)c3)c3c(N)ncnc32)cc2ccccc2c1=O |  | > 10000 nM | < 100 nM | > 10000 nM |
| CC(C)n1c(Cn2nc(-c3cc(O)cc(F)c3)c3c(N)ncnc32)cc2ccccc2c1=O | < 100 nM |  | < 100 nM |  |
| Cc1cccc2cc(C(C)Nc3ncnc4[nH]cnc34)n(-c3ccccc3F)c(=O)c12 (configuration not stated) | < 100 nM | < 10000 nM | < 100 nM |  |
| Cc1cccc2cc(Cn3nc(-c4ccc(F)c(O)c4)c4c(N)ncnc43)n(C3CCCC3)c(=O)c12 |  | > 10000 nM | < 100 nM | > 10000 nM |
| Nc1ncnc2c1c(-c1cccc(O)c1)nn2Cc1cc2cccc(Cl)c2c(=O)n1C1CC1 | < 100 nM |  | < 100 nM |  |
